Test results as given in patent publication US8609847B2, “Dihydroquinolinone derivatives” (Taisho Pharmaceutical Co., Ltd, priority 2009, dated 2013).

Molecular target: T1, human H3 receptor (Homo sapiens, UniProt Q9Y5N1)
T1 construct: purchased Perkin Elmer ES-392-M400UA; host or cells: CHO-K1 cells (recombinant expression), membrane preparation
Assay: H3 Receptor Binding Test
Conditions: 50% inhibition of R(−)-α-methyl[3H]histamine (1 nM) binding; membrane preparation of human H3 receptor-expressing CHO-K1 cells
Description: A membrane preparation of human H3 receptor-expressing CHO-K1 cells (Perkin Elmer, ES-392-M400UA, 15 μg protein/200 μl), R(−)-α-methyl[^3H]histamine (Amersham, TRK-1017, specific activity: 1.74 TBq/mmol, 1 nM) and a test drug were reacted at room temperature for 1 hour. After completion of the reaction, the reaction mixture was subjected to suction filtration through a 0.3% polyethyleneimine-treated glass filter (GF/C). The glass filter was washed five times with 50 mM Tris-HCl washing solution (pH 7.4) containing 5 mM EDTA. After washing, the glass filter was dried and a scintillator was added thereto, followed by measurement of radioactivity on the filter using a liquid scintillation counter.
Binding of R(−)-α-methyl[^3H]histamine in the presence of 10 μM R(−)-α-methylhistamine was defined as non-specific binding, and the difference between total binding and non-specific binding of R(−)-α-methyl[^3H]histamine was defined as specific binding of R(−)-α-methyl[^3H]histamine. A fixed concentration (1 nM) of R(−)-α-methyl[^3H]histamine was reacted under the above conditions with each test drug at various concentrations to obtain an inhibition curve. The inhibition curve was used to determine the concentration (IC50) of each test drug required for 50% inhibition of R(−)-α-methyl[^3H]histamine binding.

T1 sequence (Q9Y5N1 whole entry): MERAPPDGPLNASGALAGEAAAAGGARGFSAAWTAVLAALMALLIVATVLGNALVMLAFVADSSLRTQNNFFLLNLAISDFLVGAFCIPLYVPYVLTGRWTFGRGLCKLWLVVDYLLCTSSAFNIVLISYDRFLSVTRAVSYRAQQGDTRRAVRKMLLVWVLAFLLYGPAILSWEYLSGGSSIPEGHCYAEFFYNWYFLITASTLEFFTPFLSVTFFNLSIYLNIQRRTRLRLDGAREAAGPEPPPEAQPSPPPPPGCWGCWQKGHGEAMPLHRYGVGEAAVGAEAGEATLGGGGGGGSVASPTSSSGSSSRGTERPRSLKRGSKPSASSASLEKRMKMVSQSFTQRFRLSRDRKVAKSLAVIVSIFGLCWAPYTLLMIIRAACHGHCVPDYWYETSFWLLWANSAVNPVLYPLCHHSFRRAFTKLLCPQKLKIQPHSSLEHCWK

C[C@@H]1CCCN1CCCOc1ccc2c(c1)CCC(=O)N2c1cccc(C(=O)N(C)C)c1 [Compound No. 21, N,N-dimethyl-3-[6-{3-[(2R)-2-methylpyrrolidin-1-yl]propoxy}-2-oxo-3,4-dihydroquinolin-1(2H)-yl]benzamide]
IC50: 26 nM

C[C@@H]1CCCN1CCCOc1ccc2c(c1)CCC(=O)N2c1ccc(C#N)cc1 [Compound No. 1, 4-[6-{3-[(2R)-2-methylpyrrolidin-1-yl]propoxy}-2-oxo-3,4-dihydroquinolin-1(2H)-yl]benzonitrile]
IC50: 4.4 nM

Cc1cc(OCCCN2CCC[C@H]2C)cc2c1N(c1ccc(F)cc1)C(=O)CC2 [Compound No. 86, 1-(4-fluorophenyl)-8-methyl-6-{3-[(2R)-2-methylpyrrolidin-1-yl]propoxy}-3,4-dihydroquinolin-2(1H)-one]
IC50: 12 nM

C[C@@H]1CCCN1CCCOc1ccc2c(c1)CCC(=O)N2c1ccccn1 [Compound No. 34, 6-{3-[(2R)-2-methylpyrrolidin-1-yl]propoxy}-1-(pyridin-2-yl)-3,4-dihydroquinolin-2(1H)-one]
IC50: 8.1 nM

C[C@@H]1CCCN1CCCOc1ccc2c(c1)CCC(=O)N2c1ccc(OC(F)(F)F)cc1 [Compound No. 9, 6-{3-[(2R)-2-methylpyrrolidin-1-yl]propoxy}-1-[4-(trifluoromethoxy)phenyl]-3,4-dihydroquinolin-2(1H)-one]
IC50: 3.5 nM

C[C@@H]1CCCN1CCCOc1ccc2c(c1)CCC(=O)N2c1cc(F)cc(F)c1 [Compound No. 27, 1-(3,5-difluorophenyl)-6-{3-[(2R)-2-methylpyrrolidin-1-yl]propoxy}-3,4-dihydroquinolin-2(1H)-one]
IC50: 2.1 nM

C[C@@H]1CCCN1CCCOc1cc(Cl)c2c(c1)CCC(=O)N2c1ccc(F)cc1 [Compound No. 85, 8-chloro-1-(4-fluorophenyl)-6-{3-[(2R)-2-methylpyrrolidin-1-yl]propoxy}-3,4-dihydroquinolin-2(1H)-one]
IC50: 11 nM

C[C@@H]1CCCN1CCCOc1ccc2c(c1)CCC(=O)N2c1ccc2c(c1)OCO2 [Compound No. 44, 1-(1,3-benzodioxol-5-yl)-6-{3-[(2R)-2-methylpyrrolidin-1-yl]propoxy}-3,4-dihydroquinolin-2(1H)-one]
IC50: 1.2 nM

C[C@@H]1CCCN1CCCOc1ccc2c(c1)CCC(=O)N2c1cncc(F)c1 [Compound No. 52, 1-(5-fluoropyridin-3-yl)-6-{3-[(2R)-2-methylpyrrolidin-1-yl]propoxy}-3,4-dihydroquinolin-2(1H)-one]
IC50: 1.2 nM

COc1ccc(N2C(=O)CCc3cc(OC4CCN(C5CCC5)CC4)ccc32)cn1 [Compound No. 67, 6-[(1-cyclobutylpiperidin-4-yl)oxy]-1-(6-methoxypyridin-3-yl)-3,4-dihydroquinolin-2(1H)-one]
IC50: 2.7 nM

CC(C)(C)N1CCC(Oc2ccc3c(c2)CCC(=O)N3c2cnc3ccccc3c2)CC1 [Compound No. 59, 6-[(1-tert-butylpiperidin-4-yl)oxy]-3,4-dihydro-2H-1,3′-biquinolin-2-one]
IC50: 8.5 nM

O=C1CCc2cc(OCCCN3CCCC3)ccc2N1c1ccc(F)cc1 [Compound No. 78, 1-(4-fluorophenyl)-6-[3-(pyrrolidin-1-yl)propoxy]-3,4-dihydroquinolin-2(1H)-one]
IC50: 13 nM

C[C@@H]1CCCN1CCCOc1ccc2c(c1)CCC(=O)N2c1ccc2c(c1)OCC2 [Compound No. 45, 1-(2,3-dihydro-1-benzofuran-6-yl)-6-{3-[(2R)-2-methylpyrrolidin-1-yl]propoxy}-3,4-dihydroquinolin-2(1H)-one]
IC50: 2.3 nM

COc1ccc(N2C(=O)CCc3cc(OC4CCN(C(C)(C)C)CC4)ccc32)cn1 [Compound No. 65, 6-[(1-tert-butylpiperidin-4-yl)oxy]-1-(6-methoxypyridin-3-yl)-3,4-dihydroquinolin-2(1H)-one]
IC50: 12 nM

O=C1CCc2cc(OCCCN3CCCC3)ccc2N1c1cc(F)cc(F)c1 [Compound No. 80, 1-(3,5-difluorophenyl)-6-[3-(pyrrolidin-1-yl)propoxy]-3,4-dihydroquinolin-2(1H)-one]
IC50: 22 nM

COc1ccc(N2C(=O)CCc3cc(OCCCN4CCC[C@H]4C)ccc32)cn1 [Compound No. 48, 1-(6-methoxypyridin-3-yl)-6-{3-[(2R)-2-methylpyrrolidin-1-yl]propoxy}-3,4-dihydroquinolin-2(1H)-one]
IC50: 8.7 nM

C[C@@H]1CCCN1CCCOc1ccc2c(c1)CCC(=O)N2c1ccc(N2CCCC2=O)cc1 [Compound No. 18, 6-{3-[(2R)-2-methylpyrrolidin-1-yl]propoxy}-1-[4-(2-oxopyrrolidin-1-yl)phenyl]-3,4-dihydroquinolin-2(1H)-one]
IC50: 20 nM

N#Cc1cccc(N2C(=O)CCc3cc(OC4CCN(C5CCC5)CC4)ccc32)c1 [Compound No. 74, 3-{6-[(1-cyclobutylpiperidin-4-yl)oxy]-2-oxo-3,4-dihydroquinolin-1(2H)-yl}benzonitrile]
IC50: 1.3 nM

C[C@@H]1CCCN1CCCOc1ccc2c(c1)CCC(=O)N2c1cn(C(=O)OC(C)(C)C)c2ccccc12 [Compound No. 42, tert-butyl 3-[6-{3-[(2R)-2-methylpyrrolidin-1-yl]propoxy}-2-oxo-3,4-dihydroquinolin-1(2H)-yl]-1H-indole-1-carboxylate]
IC50: 34 nM

C[C@@H]1CCCN1CCCOc1ccc2c(c1)CCC(=O)N2c1cccnc1 [Compound No. 35, 6-{3-[(2R)-2-methylpyrrolidin-1-yl]propoxy}-1-(pyridin-3-yl)-3,4-dihydroquinolin-2(1H)-one]
IC50: 2.2 nM

COCc1ccc(N2C(=O)CCc3cc(OCCCN4CCC[C@H]4C)ccc32)cc1 [Compound No. 11, 1-[4-(methoxymethyl)phenyl]-6-{3-[(2R)-2-methylpyrrolidin-1-yl]propoxy}-3,4-dihydroquinolin-2(1H)-one]
IC50: 2.9 nM

CC(C)N1CCC(Oc2ccc3c(c2)CCC(=O)N3c2ccc(F)cc2)CC1 [Compound No. 75, 1-(4-fluorophenyl)-6-{[1-(propan-2-yl)piperidin-4-yl]oxy}-3,4-dihydroquinolin-2(1H)-one]
IC50: 1.4 nM

C[C@@H]1CCCN1CCCOc1ccc2c(c1)CCC(=O)N2c1cc(Cl)cc(C#N)c1 [Compound No. 31, 3-chloro-5-[6-{3-[(2R)-2-methylpyrrolidin-1-yl]propoxy}-2-oxo-3,4-dihydroquinolin-1(2H)-yl]benzonitrile]
IC50: 1.9 nM

C[C@@H]1CCCN1CCCOc1ccc2c(c1)CCC(=O)N2c1ccc2c(c1)OCCO2 [Compound No. 43, 1-(2,3-dihydro-1,4-benzodioxin-6-yl)-6-{3-[(2R)-2-methylpyrrolidin-1-yl]propoxy}-3,4-dihydroquinolin-2(1H)-one]
IC50: 2.2 nM

CCN(CC)CCCOc1ccc2c(c1)CCC(=O)N2c1ccc(F)cc1 [Compound No. 83, 6-[3-(diethylamino)propoxy]-1-(4-fluorophenyl)-3,4-dihydroquinolin-2(1H)-one]
IC50: 13 nM

C[C@@H]1CCCN1CCCOc1ccc2c(c1)CCC(=O)N2c1ccc(N2CCOCC2)cc1 [Compound No. 17, 6-{3-[(2R)-2-methylpyrrolidin-1-yl]propoxy}-1-[4-(morpholin-4-yl)phenyl]-3,4-dihydroquinolin-2(1H)-one]
IC50: 41 nM

C[C@@H]1CCCN1CCCOc1ccc2c(c1)CCC(=O)N2c1c[nH]c2ccccc12 [Compound No. 57, 1-(1H-indol-3-yl)-6-{3-[(2R)-2-methylpyrrolidin-1-yl]propoxy}-3,4-dihydroquinolin-2(1H)-one]
IC50: 0.76 nM

CCOc1ccc(N2C(=O)CCc3cc(OCCCN4CCC[C@H]4C)ccc32)cc1 [Compound No. 5, 1-(4-ethoxyphenyl)-6-{3-[(2R)-2-methylpyrrolidin-1-yl]propoxy}-3,4-dihydroquinolin-2(1H)-one]
IC50: 3.9 nM

C[C@@H]1CCCN1CCCOc1ccc2c(c1)CCC(=O)N2c1ccc2ncccc2c1 [Compound No. 38, 6-{3-[(2R)-2-methylpyrrolidin-1-yl]propoxy}-3,4-dihydro-2H-1,6′-biquinolin-2-one]
IC50: 2.9 nM

C[C@@H]1CCCN1CCCOc1ccc2c(c1)CCC(=O)N2c1ccc(C(F)(F)F)cc1 [Compound No. 8, 6-{3-[(2R)-2-methylpyrrolidin-1-yl]propoxy}-1-[4-(trifluoromethyl)phenyl]-3,4-dihydroquinolin-2(1H)-one]
IC50: 1.6 nM

C[C@@H]1CCCN1CCCOc1ccc2c(c1)CCC(=O)N2c1cnc2ccccc2c1 [Compound No. 37, 6-{3-[(2R)-2-methylpyrrolidin-1-yl]propoxy}-3,4-dihydro-2H-1,3′-biquinolin-2-one]
IC50: 3.1 nM

O=C1CCc2cc(OC3CCN(C4CCC4)CC3)ccc2N1c1cc(F)cc(F)c1 [Compound No. 68, 6-[(1-cyclobutylpiperidin-4-yl)oxy]-1-(3,5-difluorophenyl)-3,4-dihydroquinolin-2(1H)-one]
IC50: 0.72 nM

CC(=O)c1ccc(N2C(=O)CCc3cc(OCCCN4CCC[C@H]4C)ccc32)cc1 [Compound No. 15, 1-(4-acetylphenyl)-6-{3-[(2R)-2-methylpyrrolidin-1-yl]propoxy}-3,4-dihydroquinolin-2(1H)-one]
IC50: 3.6 nM

C[C@@H]1CCCN1CCCOc1ccc2c(c1)CCC(=O)N2c1cnc2cccnc2c1 [Compound No. 39, 6-{3-[(2R)-2-methylpyrrolidin-1-yl]propoxy}-1-(1,5-naphthylizin-3-yl)-3,4-dihydroquinolin-2(1H)-one]
IC50: 4.4 nM
